Experimental data reported in US20080200405A1, “Drug Resistance Reversal In Neoplastic Disease” (priority 2007, published 2008).
Marks after values point to notes of the source that are not given here. Blank lines part the entries; values can stand above or below the compound they belong to.

Tests used:
[1] = tested on: Angiogenesis in CAM; experiment: Neovascularization on the CAM (Inhibition of Angiogenesis in CAM); format: in vivo, chicken; conditions: 30 ug; for inhibition in vivo at 0.03 mg: Gallus gallus
Protocol: In vivo neovascularization was examined by the method previously described by Auerbach et al. (J. Dev. Biol. 41:391-394 (1974)). Ten-day old chicken embryos were purchased from Spafas, Inc. (Preston, Conn.) and were incubated at 37° C. with 55% relative humidity. In the dark, with the aid of a candling lamp, a small hole was punctured in the shell concealing the air sac with a hypodermic needle. A second hole was punctured in the shell on the broadside of the egg directly over an […] portion of the embryonic membrane, as observed during candling. An artificial air sac was created beneath the second hole by applying gentle vacuum to the first hole using a small rubber squeeze bulb. The vacuum caused the chorioallantoic membrane (CAM) to separate from the shell. A window, approximately 1.0 cm^2, was cut in the shell over the dropped CAM with the use of a small crafts grinding wheel (Dremel, Division of Emerson Electric Company Racine, Wis.). The window allowed direct access to the underlying CAM. A pro-angiogenic agent was added to induce new blood vessel branches on the CAM of 10-day old embryos. […] Louis, Mo.) in a solution (95% ethanol and water). The disks were subsequently air dried under sterile conditions. The disks were then suspended in PBS (Phosphate Buffered Saline) and placed on growing CAMs. […] For inducing angiogenesis, sterile filter disks were saturated with bFGF (1 μg/ml) (Life Technologies, Gaithersburg, Md.) or other pro-angiogenesis factors and control disks were saturated with PBS without Calcium and Magnesium. Control disks were saturated with PBS without Calcium and Magnesium. Using sterile forceps one filter/CAM was placed from the window. The window was sealed with Highland brand transparent tape. After 24-48 hr, 10-25 ul of test agent was injected intravenously or added topically into the CAM membrane. Eight-Ten eggs/treatment group were used. CAM tissue directly beneath filter disk was harvested from embryos treated 48 hours prior with compound or control. Tissues were washed three times with PBS. Sections were placed in a 35-mm petri dish (Nalge Nunc, Rochester, N.Y.) and examined under a SV6 stereomicroscope (Karl Zeiss, Thornwood, N.Y.) at 50× magnification. […] Digital images of CAM sections from Petri dish were collected using a 3-CCD color video camera system (Toshiba America, New York, N.Y.). These images were analyzed using Image-Pro Plus software (Media Cybernetics, Silver Spring, Md.). The number of branch points in blood vessels within the circular region superimposed to the area of a filter disk was counted for each section. […] Tissues were washed three times with PBS. Sections were placed in a 35-mm Petri dish (Nalge Nunc; Rochester, N.Y.) and were examined under a SV6 stereomicroscope (Karl Zeiss; Thornwood, N.Y.) at 50× magnification. Digital images of CAM sections adjacent to filters were collected using a 3-CCD color video camera system (Toshiba America; New York, N.Y.) and analyzed with the Image-Pro Plus software (Media Cybernetics; Silver Spring, Md.). The number of vessel branch points contained in a circular region equal to the area of a filter disk was counted for each section. Percent inhibition data are expressed as the quotient of the experimental value minus the negative control value divided by the difference between the positive control value and the negative control value. One image was counted in each CAM preparation, and findings from eight CAM preparations were analyzed for each treatment condition. In addition, each experiment was performed three times. The resulting angiogenesis index is the mean ±SEM (Standard Error of Measurement) of new branch points in each set of treatment. Statistical analysis of blood vessel branching patterns are performed by 1-way analysis of variance (ANOVA) comparing experimental with corresponding control groups.

[2] = tested on: Lipid peroxidation; experiment: Lipid peroxidation inhibition (method of Ohkawa); format: biochemical; conditions: for Lipid Peroxidation Inhibition, % Inhibition: 10 uM
[3] = tested on: angiogenesis in the CAM model; experiment: Effect of TEMPOL-H on the anti-angiogenesis efficacy of ranibizumab in the CAM model; format: in vivo, chicken; conditions: for Mean % Inhibition +/− SEM, With TEMPOL-H (30 ug): P < 0.01; for Mean % Inhibition +/− SEM, Without TEMPOL-H: n = 6-8
Protocol: FIGS. 3A and 3B depict the effect of TEMPOL-H (OT-674) on the anti-angiogenesis efficacy of ranibizumab (LUCENTIS™) in the CAM model. FIG. 3A depicts 30 ug of TEMPOL-H and 1 ng of ranibizumab. FIG. […]
Ranibizumab (Genentech, South San Francisco, Calif.) is a monoclonal antibody fragment that binds to VEGF-A. It is anti-angiogenic and is approved to treat the wet type of age-related macular degeneration. The effect of the co-administration of TEMPOL-H (also referred to as OT-674) with Ranibizumab is depicted in Table 9. This effect is also depicted in FIGS. 3A and 3B.

[4] = tested on: Human whole blood clot formation
Protocol: TEG: Human whole blood (±drugs) was added to the cylindrical cuvette (“cup”). […] The cup oscillates 4°45′ ( 1/12 radian) in either direction every 4.5 seconds, with a 1-second mid-cycle stationary period, resulting in a frequency of 0.1 Hz and a maximal shear rate of 0.1 per second. The pin was suspended by a torsion wire that acts as a torque transducer. […] The torque experienced by the pin (relative to the oscillation of the cup) was plotted as a function of time (Forsythe, S. A. M. S. K. M. S. (2000): “Comparative In Vitro Efficacy of Different Platelet Glycoprotein IIb/IIIa Antagonists on Platelet-Mediated Clot Strength Induced by Tissue Factor With Use of Thromboelastography.” Arteriosclerosis, Thrombosis, and Vascular Biology 20: 1162).
(Data represent mean ±SD, n=6 (blood form normal healthy volunteers), *P<0.01 as compared to control)

[5] = tested on: TNFα; experiment: Measurement of LPS Induced-TNFα in THP-1 Cells; format: cell-based, human; conditions: Homo sapiens, THP-1
[6] = tested on: Doxorubicin resistant SaOS2 cells; experiment: Cancer cell viability (MTT) in the presence or absence of doxorubicin; format: cell-based, human; conditions: compound 50 ug/mL, 3 days
[7] = TEG, human whole blood, Ranibizumab 1 ng/cup, Comp. 4 0 uM, *P<0.01 vs control

Compound: COc1cc2c(cc1O)CC[C@@H]1[C@@H]2CC[C@]2(C)[C@@H](O)CC[C@@H]12 [2-methoxyestradiol, reference compound]
Inhibition of Angiogenesis in CAM, % Inhibition [1]: 92.3%
Lipid Peroxidation Inhibition, % Inhibition [2]: 92.3%

Compound: Ranibizumab: a monoclonal antibody fragment that binds to VEGF-A
Mean % Inhibition +/− SEM, With TEMPOL-H (30 ug) ([3]; VEGF + Ranibizumab (1 ug) with TEMPOL-H (30 ug)): 54 +/− 9* %
Mean % Inhibition +/− SEM, Without TEMPOL-H ([3]; VEGF + Ranibizumab (1 ug)): 18 +/− 5%
Mean % Inhibition +/− SEM, With TEMPOL-H (30 ug) ([3]; VEGF + Ranibizumab (10 ug) with TEMPOL-H (30 ug)): 69 +/− 6* %
Mean % Inhibition +/− SEM, Without TEMPOL-H ([3]; VEGF + Ranibizumab (10 ug)): 33 +/− 6%
Mean % Inhibition +/− SEM, With TEMPOL-H (30 ug) ([3]; VEGF + Ranibizumab (100 ug) with TEMPOL-H (30 ug)): 83 +/− 4* %
Mean % Inhibition +/− SEM, Without TEMPOL-H ([3]; VEGF + Ranibizumab (100 ug)): 53 +/− 8%
MA in comparison to native blood [4]: approximately six times larger MA
initiation of clot formation in comparison to native blood [4]: approximately two to three fold faster
Clot Strength - MA [4, 7]: 28.5 ± 3.4* mm
Time to Clot Initiation R [4, 7]: 6.9 ± 1.4* min

melting point: 225.5 °C (dec.)
Compound: CC1(C)c2ccc(C(=O)O)cc2C(C)(C)N1O.Cl [Compound 15, 1,1,3,3-tetramethylisoindolin-2-hydroxyl-5-carboxylic acid hydrogen chloride]
inhibition in vivo at 0.03 mg [1]: 94.6%
inhibition at 10 µM ([5]; compound 10 uM, 5 ng/mL LPS, read-out: Mean Percent Inhibition of TNF-alpha using 5 ng/mL LPS): 67 ± 7%
% Lipid Peroxidation inhibition (at 1 uM) ([2]; 1 uM): 88.0%
Lipid Peroxidation Inhibition, % Inhibition [2]: 94.6%

IC50 ([5]; read-out: TNFalpha IC50): ≥ 100 µM
melting point: 184.6 °C (dec.)
Compound: CC1(C)COCC(C)(C)N1O.Cl [Compound 20, 3,3,5,5-1-hydroxy-tetramethylmorpholine hydrogen chloride]
Mean OD (×10^−3), MTT viability ([6]; Dox. 10^−6 M (+)): 107.5 ×10^−3
Mean OD (×10^−3), MTT viability ([6]; absence of Dox. (−)): 515.50 ×10^−3
inhibition in vivo at 0.03 mg [1]: 90.2%
Lipid Peroxidation Inhibition, % Inhibition [2]: 90.2%
